The results in this text go back to patent US20240150370A1, “BICYCLIC PYRIDINE DERIVATIVE” (Sumitomo Pharma Co., Ltd., priority 0001, published 2024).

Structures can show the parent of a compound that is named as a salt.

One series deals with human TAAR1 receptor (Homo sapiens (Human), UniProt Q96RJ0). The series can be described thus: Evaluation of agonist activity on human TAAR1 receptor (cAMP assay). Type of series: cell-based. Particulars: cAMP in human TAAR1-expressing CHO cells, relative to 100 μM tyramine; for activation at 0.1 µM / activation at 1 µM / activation at 10 µM: CHO, 0.5 h, read-out: TAAR1 agonist activity at each concentration (%); for TAAR1 agonist activity at each concentration (%): dihydrochloride. As for the experimental part: TAAR1 is a G protein-coupled receptor that binds to G proteins (Gas), and activation of the TAAR1 receptor by agonists induces an increase in intracellular cAMP levels. Therefore, the agonist activity of the sample on the human TAAR1 receptor was evaluated using the cAMP assay method.
human TAAR1 receptor, sequence (Q96RJ0 whole entry, the tested form may be a part): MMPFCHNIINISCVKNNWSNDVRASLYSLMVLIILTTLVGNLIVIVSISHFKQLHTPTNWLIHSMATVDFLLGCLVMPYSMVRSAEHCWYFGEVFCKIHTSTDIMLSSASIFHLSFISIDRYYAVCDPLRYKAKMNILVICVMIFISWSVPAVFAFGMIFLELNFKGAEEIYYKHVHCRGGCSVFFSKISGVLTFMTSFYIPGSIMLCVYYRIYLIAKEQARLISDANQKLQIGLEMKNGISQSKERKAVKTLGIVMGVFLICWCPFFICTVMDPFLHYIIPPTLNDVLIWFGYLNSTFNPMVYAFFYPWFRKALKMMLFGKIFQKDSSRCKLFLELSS
cAMP Hunter™ CHO-K1 TAAR1 Gs Cell Line, a cell expressing human TAAR1 receptor, was purchased. Human TAAR1-expressing CHO cells were seeded in a 96-well plate, and after culturing for 24 hours, a sample dissolved in DMSO was added and incubated at 37° C. for 30 minutes. A sample for cAMP measurement was prepared according to the cAMPHiRange kit protocol. The amount of cAMP produced by the sample was measured by time-resolved fluorescence using EnVision (excitation wavelength: 330 nm, fluorescence wavelength […]/665 nm).
Sample %=100×{(Csamp)−(Cblank)}/{(Ctyramine)−(Cblank)} • Csamp: count of sample, Ctyramine: count of 100 μM tyramine, Cblank: count of blank

The target in the next series is hERG channel (Homo sapiens (Human), UniProt Q12809). Description: Evaluation of hERG channel inhibitory activity (whole-cell patch clamp, hERG-CHO cells). The format is cell-based. The settings on record: autopatch clamp, read-out: hERG inhibition IC50. (In general: hERG is a cardiac potassium channel; its block is linked to QT prolongation.)
hERG channel, sequence (Q12809 whole entry): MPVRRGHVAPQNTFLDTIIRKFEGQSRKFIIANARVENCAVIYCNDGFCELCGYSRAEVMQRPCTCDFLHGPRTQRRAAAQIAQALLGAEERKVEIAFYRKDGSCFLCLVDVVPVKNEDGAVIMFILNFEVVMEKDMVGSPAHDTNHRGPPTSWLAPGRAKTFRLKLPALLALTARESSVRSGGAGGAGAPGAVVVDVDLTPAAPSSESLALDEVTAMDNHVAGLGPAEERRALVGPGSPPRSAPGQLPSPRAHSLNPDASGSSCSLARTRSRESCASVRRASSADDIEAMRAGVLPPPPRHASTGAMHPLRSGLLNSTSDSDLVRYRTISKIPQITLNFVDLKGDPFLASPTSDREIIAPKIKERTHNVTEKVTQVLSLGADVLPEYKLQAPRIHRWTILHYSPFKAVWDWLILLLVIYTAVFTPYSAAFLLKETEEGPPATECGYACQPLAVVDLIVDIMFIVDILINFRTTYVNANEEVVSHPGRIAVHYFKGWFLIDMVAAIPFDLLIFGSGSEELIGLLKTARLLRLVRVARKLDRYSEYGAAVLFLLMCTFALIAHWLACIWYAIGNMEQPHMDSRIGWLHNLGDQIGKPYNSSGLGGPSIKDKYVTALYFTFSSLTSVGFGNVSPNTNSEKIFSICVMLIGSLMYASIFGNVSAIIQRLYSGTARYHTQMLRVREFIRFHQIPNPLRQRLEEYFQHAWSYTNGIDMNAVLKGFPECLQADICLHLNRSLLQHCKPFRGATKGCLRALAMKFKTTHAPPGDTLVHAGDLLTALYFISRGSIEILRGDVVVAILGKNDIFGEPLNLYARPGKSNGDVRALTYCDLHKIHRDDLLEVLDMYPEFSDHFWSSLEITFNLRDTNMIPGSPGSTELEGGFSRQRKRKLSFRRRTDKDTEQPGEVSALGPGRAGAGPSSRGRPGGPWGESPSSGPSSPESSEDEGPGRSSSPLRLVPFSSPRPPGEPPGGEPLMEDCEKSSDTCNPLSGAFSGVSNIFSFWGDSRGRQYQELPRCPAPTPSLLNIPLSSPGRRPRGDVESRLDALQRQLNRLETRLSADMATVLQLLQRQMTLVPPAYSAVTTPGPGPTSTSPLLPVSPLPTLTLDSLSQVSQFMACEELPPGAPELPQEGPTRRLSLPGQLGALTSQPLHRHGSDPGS

What is called IC50 is the concentration at which inhibition is half-maximal. For `CNC[C@H]1c2ncccc2O[C@@H]1C` [Example 46, N-methyl-1-[(2R,3S)-2-methyl-2,3-dihydrofuro[3,2-b]pyridin-3-yl]methanamine dihydrochloride], the activation at 0.1 µM on human TAAR1 receptor (100 nM) amounted to 31%. Moreover, on human TAAR1 receptor (1000 nM), the activation at 1 µM was found to be 70%. Moreover, the activation at 10 µM at human TAAR1 receptor (10000 nM) amounted to 80%. Also, the IC50 at hERG channel is above 100 µM.
As to `Cc1ccc2c(n1)C(CN)C1(CC1)O2` (racemic) [Example 90, rac-1-(5′-methyl-3′H-spiro[cyclopropane-1,2′-furo[3,2-b]pyridine]-3′-yl)methanamine dihydrochloride], the activation at 0.1 µM at human TAAR1 receptor (100 nM) is 54%. Further, the activation at 1 µM on human TAAR1 receptor (1000 nM) was found to be 85%. The activation at 10 µM on human TAAR1 receptor (10000 nM) is 94%. Further, the IC50 at hERG channel is 71.8 µM.
`CNC[C@@H]1C[C@@H](C)Oc2ccc(C)nc21` [Example 47]: at human TAAR1 receptor (100 nM), the activation at 0.1 µM was 13%. For the same compound, the activation at 1 µM at human TAAR1 receptor (1000 nM) worked out at 52%. For the same compound, on human TAAR1 receptor (10000 nM), the activation at 10 µM came out at 84%. Further, the half-maximal inhibitory concentration (IC50) at hERG channel is above 100 µM.
For `CNCC1c2nc(C)ccc2OC1(C)C` (stereo not drawn) [Example 79], in that order: 36%, 77%, 90% and above 100 µM.
The matching figures for `NC[C@H]1CSc2cccnc21` (single isomer, unassigned) [Example 41, dihydrochloride]: 12%, 38%, 65% and above 100 µM.
For `C[C@@H]1COc2cccnc2[C@@H]1CN` (stereo in doubt) [Example 2, rac-1-[(3S,4S)-3-methyl-3,4-dihydro-2H-pyrano[3,2-b]pyridin-4-yl]methanamine dihydrochloride], in that order: 7%, 37%, 75% and above 100 µM.
As for `NC[C@H]1C[C@@H](c2ccccc2)Oc2cccnc21` (racemic) [Example 24], the activation at 0.1 µM on human TAAR1 receptor (100 nM) stood at 25%. Besides, the activation at 1 µM on human TAAR1 receptor (1000 nM) was 71%. For the same compound, the activation at 10 µM at human TAAR1 receptor (10000 nM) was determined as 101%. Besides, the IC50 at hERG channel is 6.9 µM.
With `Cc1ccc2c(n1)[C@H](CN)[C@@H](C)O2` [Example 35, 1-[(2R,3S)-2,5-dimethyl-2,3-dihydrofuro[3,2-b]pyridin-3-yl]methanamine], at human TAAR1 receptor (100 nM), the activation at 0.1 µM is 57%. The activation at 1 µM on human TAAR1 receptor (1000 nM) came to 82%. Also, the activation at 10 µM at human TAAR1 receptor (10000 nM) came to 87%. Moreover, at hERG channel, the IC50 is above 100 µM.
The matching figures for `C[C@H]1Oc2ccc(Cl)nc2[C@@H]1CN` [Example 38, 1-[(2R,3S)-5-chloro-2-methyl-2,3-dihydrofuro[3,2-b]pyridin-3-yl]methanamine dihydrochloride]: 52%, 86%, 93% and above 100 µM.
Regarding `CNC[C@@H]1C[C@H](C)Oc2cccnc21` [Example 6], on human TAAR1 receptor (100 nM), the activation at 0.1 µM came to 16%. For the same compound, the activation at 1 µM on human TAAR1 receptor (1000 nM) came to 57%. The activation at 10 µM on human TAAR1 receptor (10000 nM) is 75%. In addition, the IC50 on hERG channel was above 100 µM.
The matching figures for `Cc1cc(C)c2c(n1)[C@H](CN)[C@@H](C)O2` [Example 84]: 15%, 51%, 79% and above 100 µM.
The matching figures for `NCC1c2ncccc2OC12CC2` (stereo not drawn) [Example 58]: 36%, 74%, 82% and above 100 µM.
In the case of `CNC[C@@H]1C[C@@H](C)Oc2cccnc21` [Example 5, N-methyl-1-[(2R,4S)-2-methyl-3,4-dihydro-2H-pyrano[3,2-b]pyridin-4-yl]methanamine dihydrochloride], the “TAAR1 agonist activity at each concentration (%)” value at human TAAR1 receptor (100 nM) is given as 24%; on human TAAR1 receptor (1000 nM) it was 68%; at human TAAR1 receptor (10000 nM) it was 90%. On hERG channel, the half-inhibitory concentration (IC50) is above 100 µM.
Take `CNC[C@H]1c2ncc(F)cc2O[C@@H]1C` [Example 49, 1-[(2R,3S)-6-fluoro-2-methyl-2,3-dihydrofuro[3,2-b]pyridin-3-yl]-N-methylmethanamine dihydrobromide]: the activation at 0.1 µM at human TAAR1 receptor (100 nM) stood at 25%. At human TAAR1 receptor (1000 nM), the activation at 1 µM is 63%. The activation at 10 µM at human TAAR1 receptor (10000 nM) was determined as 75%. The IC50 at hERG channel was above 100 µM.
For `Cc1ccc2c(n1)C(CN)C(C)(C)O2` (stereo not drawn) [Example 83], in that order: 59%, 91%, 99% and above 100 µM.
For `CC[C@@H]1Oc2cccnc2[C@H]1CN` (stereo in doubt) [Example 44, rel-1-[(2S,3R)-2-ethyl-2,3-dihydrofuro[3,2-b]pyridin-3-yl]methanamine dihydrochloride], in that order: 13%, 48%, 79% and above 100 µM.
The matching figures for `C[C@H]1Oc2ccc(F)nc2[C@@H]1CN` [Example 29]: 51%, 93%, 104% and above 100 µM.
On to `NC[C@H]1c2ncccc2OC12CC2` (single isomer, unassigned) [Example 97, rel-1-[(3'S)-3′H-spiro[cyclopropane-1,2′-furo[3,2-b]pyridine]-3′-yl]methanamine dihydrochloride], for which the activation at 0.1 µM at human TAAR1 receptor (100 nM) was found to be 70%. Further, the activation at 1 µM at human TAAR1 receptor (1000 nM) is 101%. Moreover, the activation at 10 µM on human TAAR1 receptor (10000 nM) was 96%. In addition, the IC50 at hERG channel is above 100 µM.
Regarding `COc1ccc2c(n1)C(CN)CCC2` (racemic) [Example 88, rac-1-(2-methoxy-5,6,7,8-tetrahydroquinolin-8-yl)methanamine dihydrochloride], the activation at 0.1 µM at human TAAR1 receptor (100 nM) turned out to be 11%. Moreover, the activation at 1 µM on human TAAR1 receptor (1000 nM) amounted to 38%. Also, at human TAAR1 receptor (10000 nM), the activation at 10 µM turned out to be 65%. For the same compound, at hERG channel, the IC50 is above 100 µM.
For `NCC1CCSc2cccnc21` (stereo not drawn) [Example 9], in that order: 15%, 53%, 70% and above 100 µM.
For `C[C@@H]1Sc2cccnc2[C@@H]1CN` (racemic) [Example 16], in that order: 6%, 37%, 76% and 68.6 µM.
Take `CNC[C@H]1c2nccc(C)c2O[C@@H]1C` [Example 51]: on human TAAR1 receptor (100 nM), the activation at 0.1 µM is 10%. Also, the activation at 1 µM at human TAAR1 receptor (1000 nM) is 46%. Also, on human TAAR1 receptor (10000 nM), the activation at 10 µM came out at 77%. Also, at hERG channel, the IC50 was above 100 µM.
Take `CNC[C@H]1c2ncc(Cl)cc2O[C@@H]1C` [Example 50]: on human TAAR1 receptor (100 nM), the activation at 0.1 µM came to 12%. For the same compound, the activation at 1 µM on human TAAR1 receptor (1000 nM) was 45%. Further, the activation at 10 µM at human TAAR1 receptor (10000 nM) came out at 63%. For the same compound, the IC50 on hERG channel is above 100 µM.
For `Cc1ccc2c(n1)[C@H](CN)C[C@@H](C)O2` [Example 18], in that order: 29%, 73%, 87% and above 100 µM.
